Results from US10501467B2, “Fused tetra or penta-cyclic dihydrodiazepinocarbazolones as PARP inhibitors” (BeiGene, Ltd., priority 2011, dated 2019).
pEC50: −log10 of the molar value.

Tested on: PARP PARylation in HeLa cells
Assay: PARylation assay in HeLa cells
Type: cell-based
Details: H2O2-provoked DNA damage

| Compound | pEC50 |
| --- | --- |
| 2-phenyl-2,3,5,10- tetrahydro- [1,2]diazepino[3,4, 5,6-def]carbazol- 6(1H)-one [Compound 5] | 8.00 |
| CN(C)c1ccc(C2CC3=NNC(=O)c4cc(F)cc5[nH]c(c3c45)C2)cc1 (stereo not drawn) [Compound 12, 2-(4-(dimethylamino)phe-nyl)-8-fluoro-2,3,5,10-tetrahydro-[1,2]diazepino[3,4,5,6-def]carbazol-6(1H)-one] | 7.58 |

Same assay, conditions: Homo sapiens, H2O2-provoked DNA damage

| Compound | pEC50 |
| --- | --- |
| CC1CC2=NNC(=O)c3cccc4[nH]c(c2c34)C1 (stereo not drawn) [Compound 3, 2-methyl-2,3,5,10-tetrahydro-[1,2]diazepino[3,4,5,6-def]carbazol-6(1H)-one] | 8.34 |
| CC1(C)CCc2[nH]c3cccc4c3c2C1=NNC4=O [Compound 4, 3,3-dimethyl-2,3,5,10-tetrahydro-[1,2]diazepino[3,4,5,6-def]carbazol-6(1H)-one] | 7.33 |
| CC(C)C1CC2=NNC(=O)c3cccc4[nH]c(c2c34)C1 (stereo not drawn) [Compound 6, 2-isopropyl-2,3,5,10-tetrahydro-[1,2]diazepino[3,4,5,6-def]carbazol-6(1H)-one] | 8.41 |
| CN(C)c1ccc(C2CC3=NNC(=O)c4cccc5[nH]c(c3c45)C2)cc1 (stereo not drawn) [Compound 13, 2-(4-(dimethylamino)phe-nyl)-2,3,5,10-tetrahydro-[1,2]diazepino[3,4,5,6-def]carbazol-6(1H)-one] | 7.11 |
| O=C1NN=C2CN(C(=O)OCc3ccccc3)Cc3[nH]c4cccc1c4c32 [Compound 20, Benzyl 8-oxo-3,4,8,9-tetrahydro-2,4,9,10-tetraazacyclohepta[def]fluorene-2(1H)-carboxylate] | 8.14 |
| O=C1NN=C2CN(C(=O)OCc3ccccc3)Cc3[nH]c4cc(F)cc1c4c32 [Compound 21, Benzyl 6-fluoro-8-oxo-3,4,8,9-tetrahydro-2,4,9,10-tetraazacyclohepta[def]fluorene-2(1H)-carboxylate] | 7.85 |
| CN1N=C2CC(C)(C)Cc3c2c2c(cccc2n3C)C1=O [Compound 25, 2,2,5,10-tetramethyl-2,3,5,10-tetrahydro-[1,2]diazepino[3,4,5,6-def]carbazol-6(1H)-one] | < 6.00 |
| CC1(C)CC2=NNC(=O)c3cc(F)cc4[nH]c(c2c34)C1=O [Compound 26, 8-Fluoro-2,2-dimethyl-2,3-dihydro-[1,2]diazepino[3,4,5,6-def]carbazole-1,6(5H,10H)-dione] | 8.35 |
| CN(C)CCn1c2c3c4c(cccc41)C(=O)NN=C3CCC2 [Compound 37, 10-(2-(dimethylamino)ethyl)-2,3,5,10-tetrahydro-[1,2]diazepino[3,4,5,6-def]carbazol-6(1H)-one] | 7.66 |
| CN1CC2=NNC(=O)c3cccc4[nH]c(c2c34)C1 [Compound 44, 2-Methyl-2,3,4,9-tetrahydro-2,4,9,10-tetraazacyclohepta[def]fluoren-8(1H)-one] | 7.62 |
| CC(C)N1CC2=NNC(=O)c3cccc4[nH]c(c2c34)C1 [Compound 45, 2-Isopropyl-2,3,4,9-tetrahydro-2,4,9,10-tetraazacyclohepta[def]fluoren-8(1H)-one] | 8.42 |
| O=C1NN=C2CN(C(=O)C3CC3)Cc3[nH]c4cccc1c4c32 [Compound 47, 2-(cyclopropanecarbonyl)-2,3,4,9-tetrahydro-2,4,9,10-tetraazacyclohepta[def]fluoren-8(1H)-one] | 8.16 |
| CN(C)CCn1c2c3c4c(cccc41)C(=O)NN=C3CN(C(=O)C1CC1)C2 [Compound 48, 2-(cyclopropanecarbonyl)-4-(2-(dimethylamino)ethyl)-2,3,4,9-tetrahydro-2,4,9,10-tetraazacyclohepta[def]fluoren-8(1H)-one] | 8.22 |
| CN(C)CCn1c2c3c4c(cc(F)cc41)C(=O)NN=C3CN(C(=O)C1CC1)C2 [Compound 50, 2-(Cyclopropanecarbonyl)-4-(2-(dimethylamino)ethyl)-6-fluoro-2,3,4,9-tetrahydro-2,4,9,10-tetraazacyclohepta[def]fluoren-8(1H)-one] | 7.68 |
| CC(C)(C)C(=O)N1CC2=NNC(=O)c3cccc4[nH]c(c2c34)C1 [Compound 51, 2-Pivaloyl-2,3,4,9-tetrahydro-2,4,9,10-tetraazacyclohepta[def]fluoren-8(1H)-one] | 8.02 |
| CC(C)(C)C(=O)N1CC2=NNC(=O)c3cc(F)cc4[nH]c(c2c34)C1 [Compound 52, 6-Fluoro-2-pivaloyl-2,3,4,9-tetrahydro-2,4,9,10-tetraazacyclohepta[def]fluoren-8(1H)-one] | 7.87 |
| O=C1NN=C2CN(C3CCCCC3)Cc3[nH]c4cccc1c4c32 [Compound 53, 2-Cyclohexyl-2,3,4,9-tetrahydro-2,4,9, 10-tetraazacyclohepta[def]fluoren-8(1H)-one] | 7.70 |
| CC(C)(C)CCN1CC2=NNC(=O)c3cccc4[nH]c(c2c34)C1 [Compound 54, 2-(3,3-dimethylbutyl)-2,3,4,9-tetrahydro-2,4,9,10-tetraazayclohepta[def]fluoren-8(1H)-one] | 7.64 |
| CCCN1CC2=NNC(=O)c3cccc4[nH]c(c2c34)C1 [Compound 56, 2-Propyl-2,3,4,9-tetrahydro-2,4,9,10-tetraazacyclohepta[def]fluoren-8(1H)-one] | 8.19 |
| CCCCN1CC2=NNC(=O)c3cc(F)cc4[nH]c(c2c34)C1 [Compound 59, 2-Butyl-6-fluoro-2,3,4,9-tetrahydro-2,4,9,10-tetraazacyclohepta[def]fluoren-8(1H)-one] | 8.70 |
| CN(C)CCN1CC2=NNC(=O)c3cccc4[nH]c(c2c34)C1 [Compound 60, 2-(2-(dimethylamino)ethyl)-2,3,4,9-tetrahydro-2,4,9,10-tetraazacyclohepta[def]fluoren-8(1H)-one] | 7.16 |
| CN(C)CCN1CC2=NNC(=O)c3cc(F)cc4[nH]c(c2c34)C1 [Compound 61, 2-(2-(Dimethylamino)ethyl)-6-fluoro-2,3,4,9-tetrahydro-2,4,9,10-tetraazacyclohepta[def]fluoren-8(1H)-one] | 7.38 |
| CC(C)(C)OC(=O)N[C@@H](Cc1ccccc1)C(=O)N1CC2=NNC(=O)c3cccc4[nH]c(c2c34)C1 [Compound 63, (S)-tert-butyl (1-oxo-1-(8-oxo-8,9-dihydro-2,4,9,10-tetraazacyclohepta[def]fluoren-2(1H,3H,4H)-yl)-3-phenylpropan-2-yl)carbamate] | 6.63 |
| CC1(C)CC2=NNC(=O)c3cccc4c3c2c(n4CCO)C1 [Compound 67, 10-(2-hydroxyethyl)-2,2-dimethyl-2,3,5,10-tetrahydro-[1,2]diazepino[3,4,5,6-def]carbazol-6(1H)-one] | 6.61 |
| C[C@]12CCCN1CC1=NNC(=O)c3cc(F)cc4[nH]c2c1c34 [Compound 69] | 9.22 |
